pIC50, pKi: −log10 of the molar value. Several values for one entry are separate records, joined by “and”; a condition that tells them apart may be missing. Identical values can stand only once. Like-named read-outs stand apart in the source and are kept apart here.
Assays:
DDR1 [1] = target: T1, DDR1 (Homo sapiens, UniProt Q08345); test: DDR1 cell based assay (PathHunter U2OS DDR1, collagen II stimulation); conditions: U2OS-DDR1 cells, bovine Type II Collagen stimulation
Experimental: The inhibition of DDR1 receptor activation by compounds was evaluated by PathHunter® U2OS DDR1 assay (Eurofins DiscoverX), according to the manufacturer's instructions. Briefly, U2OS-DDR1 cells were seeded in white 384-well plates at a density of 5000 cells/well and incubated for 2 hours at 37° C. and 5% CO2. Cells were then treated with compounds at different concentrations and incubated for 30 minutes, before stimulation with bovine Type II Collagen 20 μg/ml and incubation overnight at 37° C. and 5% CO2. PathHunter Detection Reagents were prepared according to the protocol provided by DiscoverX and 20 μl/well of this mix were added to each well. After incubating the plates for 1 hour at room temperature in the dark, luminescence signal was acquired with a plate reader. Raw data were normalized to vehicle control (0% for normalization) and positive control (100% for normalization; cells treated with 20 μg/ml collagen II) and IC50 parameters were calculated in GraphPad Prism 8.0 software, using sigmoidal dose-response curve fitting with variable slope.

DDR1 [2] = target: T1, DDR1; test: DDR1 LanthaScreen Europium Kinase Binding assay
Experimental: (§1) DDR1 and DDR2 binding assays were performed using Life Technologies LanthaScreen™ Europium Kinase Binding assay. The compounds were incubated with 5 nM DDR1 (Carna Biosciences) or 5 nM DDR2 (Life Technologies) for 1 hour at room temperature in white 384-well OptiPlate (PerkinElmer), containing 20 nM or 10 nM Kinase Tracer 178 respectively and 2 nM Europium labelled anti-GST antibody (Life Technologies) in assay buffer (50 mM HEPES pH 7.5, 10 mM MgCI2, 1 mM EGTA and 0.01% BRIJ35). The ratio of fluorescence emission 665 nm/615 nm after excitation at 340 nm was obtained using the Tecan Spark 20M plate reader. IC50 values were determined in GraphPad Prism 7.0 software, using 4 parameter model: log(inhibitor) vs. response. IC50 values were converted in Ki using the Cheng-Prusoff equation (Ki=IC50/(1+[Tracer]/Kd).

DDR2 = target: T2, DDR2 (Homo sapiens, UniProt Q16832); test: DDR2 LanthaScreen Europium Kinase Binding assay
T2 sequence (Q16832 22-855): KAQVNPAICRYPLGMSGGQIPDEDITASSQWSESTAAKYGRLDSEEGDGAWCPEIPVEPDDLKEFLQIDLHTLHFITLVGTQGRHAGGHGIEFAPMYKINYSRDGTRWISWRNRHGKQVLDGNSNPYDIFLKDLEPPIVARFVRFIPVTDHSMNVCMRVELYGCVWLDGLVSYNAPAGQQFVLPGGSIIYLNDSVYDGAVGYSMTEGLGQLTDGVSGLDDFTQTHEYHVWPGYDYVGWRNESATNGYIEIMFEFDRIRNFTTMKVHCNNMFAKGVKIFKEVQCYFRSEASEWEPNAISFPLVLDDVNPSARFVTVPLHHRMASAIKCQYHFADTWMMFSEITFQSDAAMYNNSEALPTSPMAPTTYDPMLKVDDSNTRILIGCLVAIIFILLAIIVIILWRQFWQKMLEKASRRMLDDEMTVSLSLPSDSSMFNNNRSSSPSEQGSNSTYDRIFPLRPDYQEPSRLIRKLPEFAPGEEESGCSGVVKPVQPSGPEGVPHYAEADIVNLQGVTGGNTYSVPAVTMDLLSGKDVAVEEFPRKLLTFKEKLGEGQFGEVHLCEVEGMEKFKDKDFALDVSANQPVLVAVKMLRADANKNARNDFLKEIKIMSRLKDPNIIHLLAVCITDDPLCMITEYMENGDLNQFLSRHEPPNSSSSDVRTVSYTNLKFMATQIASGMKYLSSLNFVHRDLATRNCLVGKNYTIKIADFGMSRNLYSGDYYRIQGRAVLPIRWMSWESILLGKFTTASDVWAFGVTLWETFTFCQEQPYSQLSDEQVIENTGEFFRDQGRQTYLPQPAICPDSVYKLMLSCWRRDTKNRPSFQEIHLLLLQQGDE
Experimental: as §1

[3] = binding affinity, IC50 converted in Ki using Cheng-Prusoff, read-out: Ki DDR1
[4] = binding affinity, IC50 converted in Ki using Cheng-Prusoff, read-out: Ki DDR2
[5] = binding assay, Ki from IC50 by Cheng-Prusoff, read-out: DDR1 Ki
[6] = binding assay, Ki from IC50 by Cheng-Prusoff, read-out: DDR2 Ki

T1 sequence (Q08345 19-913): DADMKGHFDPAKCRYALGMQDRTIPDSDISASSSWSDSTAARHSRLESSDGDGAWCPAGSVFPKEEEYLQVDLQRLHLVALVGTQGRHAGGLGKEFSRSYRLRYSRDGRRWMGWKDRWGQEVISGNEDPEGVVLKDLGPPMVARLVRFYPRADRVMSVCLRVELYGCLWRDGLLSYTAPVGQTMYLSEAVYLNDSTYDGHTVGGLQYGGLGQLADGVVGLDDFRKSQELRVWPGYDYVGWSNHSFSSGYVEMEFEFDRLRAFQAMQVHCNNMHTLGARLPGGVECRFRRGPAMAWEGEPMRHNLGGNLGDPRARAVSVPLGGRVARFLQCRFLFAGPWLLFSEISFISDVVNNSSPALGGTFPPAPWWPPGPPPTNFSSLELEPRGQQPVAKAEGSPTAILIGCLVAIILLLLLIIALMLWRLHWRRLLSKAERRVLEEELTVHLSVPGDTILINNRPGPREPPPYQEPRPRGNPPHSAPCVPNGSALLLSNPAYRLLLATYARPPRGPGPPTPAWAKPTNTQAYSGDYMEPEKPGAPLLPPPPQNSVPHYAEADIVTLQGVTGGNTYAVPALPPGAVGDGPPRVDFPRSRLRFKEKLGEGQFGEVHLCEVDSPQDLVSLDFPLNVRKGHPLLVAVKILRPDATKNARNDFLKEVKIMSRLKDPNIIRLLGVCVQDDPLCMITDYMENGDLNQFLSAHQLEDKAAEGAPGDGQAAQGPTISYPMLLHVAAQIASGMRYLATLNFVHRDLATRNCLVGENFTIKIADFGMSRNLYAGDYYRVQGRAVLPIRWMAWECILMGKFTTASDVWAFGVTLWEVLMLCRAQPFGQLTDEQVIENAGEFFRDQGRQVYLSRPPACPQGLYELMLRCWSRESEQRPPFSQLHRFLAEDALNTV

pIC50 (DDR1 [1])	pKi (DDR1 [2]; [3])	pKi (DDR2; [4])	pKi (DDR1 [2]; [5])	pKi (DDR2; [6])	Structure (SMILES)
7.10 to 7.30	> 7.60	> 7.60			CC(C)(C)c1cc(NC(=O)c2ccc3c(c2)N(Cc2cnc4cnccn24)CC3)on1 [Example 79, N-(3-(tert-butyl)isoxazol-5-yl)-1-(imidazo[1,2-a]pyrazin-3-ylmethyl)indoline-6-carboxamide]
> 7.60	> 7.60	> 7.60			CN1CCN(Cc2ccc(NC(=O)c3ccc4c(c3)N(Cc3cnc5ccnn5c3)CC4)cc2C(F)(F)F)CC1 [Example 76, N-(4-((4-methylpiperazin-1-yl)methyl)-3-(trifluoromethyl)phenyl)-1-(pyrazolo[1,5-a]pyrimidin-6-ylmethyl)indoline-6-carboxamide]
7.30 to 7.60	> 7.60	> 7.60			Cc1cn(-c2cc(NC(=O)c3ccc4c(c3)N(Cc3cnc5cnccn35)CC4C)cc(C(F)(F)F)c2)cn1 (racemic) [Example 26, 1-(imidazo[1,2-a]pyrazin-3-ylmethyl)-3-methyl-N-(3-(4-methyl-1H-imidazol-1-yl)-5-(trifluoromethyl)phenyl)indoline-6-carboxamide]
7.30 to 7.60	7.30 to 7.60	7.10 to 7.30			Cc1cn(-c2cc(NC(=O)c3ccc4c(c3)N(Cc3ccc5ccncc5c3)CC4)cc(C(F)(F)F)c2)cn1 [Example 5, 1-(isoquinolin-7-ylmethyl)-N-(3-(4-methyl-1H-imidazol-1-yl)-5-(trifluoromethyl)phenyl)indoline-6-carboxamide]
7.10 to 7.30	> 7.60	> 7.60			Cc1cn(-c2cc(NC(=O)c3ccc4c(c3)N(C(=O)c3cnc5ccccn35)CC4)cc(C(F)(F)F)c2)cn1 [Example 12, 1-(imidazo[1,2-a]pyridine-3-carbonyl)-N-(3-(4-methyl-1H-imidazol-1-yl)-5-(trifluoromethyl)phenyl)indoline-6-carboxamide]
7.30 to 7.60	7.30 to 7.60	7.10 to 7.30			O=C(Nc1cccc(C(F)(F)F)c1)c1ccc2c(c1)N(Cc1cnc3ccccn13)CC2 [Example 57, 1-(imidazo[1,2-a]pyridin-3-ylmethyl)-N-(3-(trifluoromethyl)phenyl)indoline-6-carboxamide]
> 7.60	> 7.60	> 7.60			CC1CN(Cc2cnc3[nH]ncc3c2)c2cc(C(=O)Nc3cccc(C(F)(F)F)c3)ccc21 (racemic) [Example 30, 1-((1H-pyrazolo[3,4-b]pyridin-5-yl)methyl)-3-methyl-N-(3-(trifluoromethyl)phenyl)indoline-6-carboxamide]
7.30 to 7.60	> 7.60	> 7.60			CN(C)Cc1ccc(NC(=O)c2ccc3c(c2)N(Cc2cnc4cnccn24)CC3)cc1C(F)(F)F [Example 48, N-(4-((dimethylamino)methyl)-3-(trifluoromethyl)phenyl)-1-(imidazo[1,2-a]pyrazin-3-ylmethyl)indoline-6-carboxamide]
> 7.60	> 7.60	> 7.60			Cc1n[nH]c2ncc(CN3CCc4ccc(C(=O)Nc5cc(CN6CC[C@@H](N(C)C)C6)cc(C(F)(F)F)c5)cc43)cc12 [Example 72, (R)-N-(3-((3-(dimethylamino)pyrrolidin-1-yl)methyl)-5-(trifluoromethyl)phenyl)-1-((3-methyl-1H-pyrazolo[3,4-b]pyridin-5-yl)methyl)indoline-6-carboxamide]
7.30 to 7.60	> 7.60	> 7.60			O=C(Nc1cccc(OC(F)(F)F)c1)c1ccc2c(c1)N(Cc1cnc3cnccn13)CC2 [Example 43, 1-(imidazo[1,2-a]pyrazin-3-ylmethyl)-N-(3-(trifluoromethoxy)phenyl)indoline-6-carboxamide]
> 7.60	> 7.60	> 7.60			Cc1n[nH]c2ncc(CN3CCc4ccc(C(=O)Nc5cc(OCCN6CCCC6)cc(C(F)(F)F)c5)cc43)cc12 [Example 85, 1-((3-methyl-1H-pyrazolo[3,4-b]pyridin-5-yl)methyl)-N-(3-(2-(pyrrolidin-1-yl)ethoxy)-5-(trifluoromethyl)phenyl)indoline-6-carboxamide]
7.10 to 7.30	> 7.60	> 7.60			Cc1cn(-c2cc(C(=O)Nc3ccc4c(c3)N(Cc3cnc5ccccn35)CC4)cc(C(F)(F)F)c2)cn1 [Example 23, N-(1-(imidazo[1,2-a]pyridin-3-ylmethyl)indolin-6-yl)-3-(4-methyl-1H-imidazol-1-yl)-5-(trifluoromethyl)benzamide]
> 7.60	> 7.60	> 7.60			Cc1n[nH]c2ncc(CN3CCc4ccc(C(=O)Nc5cncc(C(F)(F)F)c5)cc43)cc12 [Example 71, 1-((3-methyl-1H-pyrazolo[3,4-b]pyridin-5-yl)methyl)-N-(5-(trifluoromethyl)pyridin-3-yl)indoline-6-carboxamide]
7.10 to 7.30	> 7.60	7.30 to 7.60			COc1ccc(NC(=O)c2ccc3c(c2)N(Cc2cnc4cnccn24)CC3)cc1C(F)(F)F [Example 46, 1-(imidazo[1,2-a]pyrazin-3-ylmethyl)-N-(4-methoxy-3-(trifluoromethyl)phenyl)indoline-6-carboxamide]
7.30 to 7.60	> 7.60	> 7.60			CN1CCN(Cc2cc(C(=O)Nc3ccc4c(c3)N(C(=O)c3cnc5ccccn35)CC4)cc(C(F)(F)F)c2)CC1 [Example 16, N-(1-(imidazo[1,2-a]pyridine-3-carbonyl)indolin-6-yl)-3-((4-methylpiperazin-1-yl)methyl)-5-(trifluoromethyl)benzamide]
7.30 to 7.60	> 7.60	> 7.60			CN1CCN(Cc2cc(C(=O)Nc3ccc4c(c3)N(Cc3cnc5cnccn35)CC4)cc(C(F)(F)F)c2)CC1 [Example 18, N-(1-(imidazo[1,2-a]pyrazin-3-ylmethyl)indolin-6-yl)-3-((4-methylpiperazin-1-yl)methyl)-5-(trifluoromethyl)benzamide]
7.10 to 7.30	> 7.60	> 7.60			Cc1cn(-c2cc(NC(=O)c3ccc4c(c3)N(C(=O)c3cnc5cnccn35)CC4)cc(C(F)(F)F)c2)cn1 [Example 13, 1-(imidazo[1,2-a]pyrazine-3-carbony1)-N-(3-(4-methyl-1H-imidazol-1-y1)-5-(trifluoromethyl)phenyl)indoline-6-carboxamide]
			< 6.22 and 4.24	4.24	CN1CCN(Cc2cc(NC(=O)c3ccc4c(c3)N(C(=O)Cc3cnc5ccccn35)CC4)cc(C(F)(F)F)c2)CC1 [Example C1, 1-(2-(imidazo[1,2-a]pyridin-3-yl)acetyl)-N-(3-((4-methylpiperazin-1-yl)methyl)-5-(trifluoromethyl)phenyl)indoline-6-carboxamide]
			6.22	4.24	CN1CCN(Cc2cc(C(=O)Nc3ccc4c(c3)N(C(=O)Cc3cnc5ccccn35)CC4)cc(C(F)(F)F)c2)CC1 [Example C2, N-(1-(2-(imidazo[1,2-a]pyridin-3-yl)acetyl)indolin-6-yl)-3-((4-methylpiperazin-1-yl)methyl)-5-(trifluoromethyl)benzamide]

Source: patent US20240217967A1, “INDOLINE DERIVATIVES AS DDRS INHIBITORS” (CHIESI FARMACEUTICI S.P.A., priority 2021, published 2024)
